Some test systems named below: UACC-257 melanoma; OVCAR-8 ovarian; MALME-3M melanoma; MDA-MB-435; RXF 393 renal; SK-MEL-5 melanoma; M14 melanoma; 786-0 renal; SF-268 CNS; HS 578T breast; KM12 colon; UO-31 renal; MCF7 breast; T-47D breast; CCRF-CEM leukemia.
Holding throughout (experiment): growth of human tumour cells (NCI), 48 h

Drawing on PubChem BioAssay (NCI), this text covers TGI for 15 molecules.

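Where inhibition never reached the appropriate level, the endpoint shown equals the highest concentration tested. Otherwise, values were interpolated linearly from a five-concentration, 48-hour dose response in 96-well plates. At the TGI there is no net growth.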

For `C/C=C\C(CC(=O)NCCC1CN(S(=O)(=O)c2ccc(C)cc2)c2ccccc21)CC(=O)OC` (stereo not given), the TGI with UACC-257 melanoma, in the experiment on OVCAR-8 ovarian, in the experiment on MALME-3M melanoma, with MDA-MB-435, with RXF 393 renal and in the experiment with SK-MEL-5 melanoma was > 100 µM in each case. Besides, the TGI in the experiment with M14 melanoma, with 786-0 renal, in the experiment with SF-268 CNS, with HS 578T breast, in the experiment with KM12 colon and in the experiment with UO-31 renal was > 100 µM in each case. In addition, the TGI in the experiment with MCF7 breast and in the experiment on T-47D breast was > 100 µM in each case.
On to `Cc1nn(C(=O)Cc2ccccc2)c2c1C(c1ccc(O)cc1O)SC(N)=N2` (stereo not given), for which the TGI in the experiment with UACC-257 melanoma, in the experiment on OVCAR-8 ovarian, in the experiment on CCRF-CEM leukemia, in the experiment with MALME-3M melanoma, in the experiment on MDA-MB-435 and in the experiment with SK-MEL-5 melanoma was > 100 µM in each case. The TGI in the experiment with M14 melanoma, in the experiment with 786-0 renal, with SF-268 CNS, in the experiment on HS 578T breast, in the experiment on KM12 colon and in the experiment with UO-31 renal was > 100 µM in each case. Further, the TGI with MCF7 breast and in the experiment with T-47D breast was > 100 µM throughout.
With `CN(C)C(=S)/N=c1\ssc(=S)n1Cc1ccccc1`, the TGI with UACC-257 melanoma was > 56.2 µM; in the experiment on OVCAR-8 ovarian, 17.7 µM; with CCRF-CEM leukemia it was 49.6 µM; in the experiment on MALME-3M melanoma, 30.7 µM; in the experiment with MDA-MB-435 it was 0.269 µM; with RXF 393 renal, 1 µM. Moreover, the TGI is 18.3 µM in the experiment with SK-MEL-5 melanoma; 13 µM with M14 melanoma; 15.9 µM with 786-0 renal; > 63.1 µM in the experiment on SF-268 CNS; > 100 µM in the experiment on KM12 colon; 54 µM in the experiment on UO-31 renal. The TGI in the experiment on MCF7 breast is > 46.4 µM; with T-47D breast, > 31.6 µM.
In the case of `CCOP(=O)(OCC)C(Nc1ccc(Br)cc1)c1cccc([N+](=O)[O-])c1` (stereo not given), the TGI was > 100 µM in the experiment on OVCAR-8 ovarian; 49.1 µM in the experiment on CCRF-CEM leukemia; 37.9 µM with MALME-3M melanoma; 36.7 µM in the experiment on MDA-MB-435; 31.5 µM in the experiment on RXF 393 renal; 28.3 µM with SK-MEL-5 melanoma. The TGI amounted to 37 µM in the experiment on M14 melanoma; 44.8 µM in the experiment on 786-0 renal; 43.6 µM in the experiment with SF-268 CNS; 61.1 µM with HS 578T breast; 32.1 µM in the experiment with KM12 colon; 22.7 µM with UO-31 renal. In the experiment with T-47D breast, this molecule came in with a TGI of 37.1 µM.
Turning to `O=c1c2nc3ccccc3c(=O)n2ncn1-c1ccccc1Cl`, the TGI in the experiment with UACC-257 melanoma, in the experiment on OVCAR-8 ovarian, in the experiment with CCRF-CEM leukemia, in the experiment with MALME-3M melanoma, with MDA-MB-435 and in the experiment on SK-MEL-5 melanoma was > 100 µM in each case. The TGI in the experiment with M14 melanoma, in the experiment on 786-0 renal, in the experiment with SF-268 CNS, in the experiment with HS 578T breast, with KM12 colon and in the experiment with UO-31 renal was > 100 µM each time. Moreover, the TGI with MCF7 breast and in the experiment with T-47D breast was > 100 µM in each case.
Consider `CC(C)(C)c1cc(C2=NNC(c3ccccc3)C2)cc(C(C)(C)C)c1O` (stereo not given), for which the TGI with UACC-257 melanoma was 27.5 µM; in the experiment with OVCAR-8 ovarian, 31.7 µM; in the experiment with MALME-3M melanoma, 34.7 µM; in the experiment with MDA-MB-435, 26.8 µM; in the experiment on RXF 393 renal, 23.2 µM; in the experiment on SK-MEL-5 melanoma, 23 µM. For the same molecule, the TGI in the experiment with M14 melanoma came out at 34.1 µM; in the experiment on 786-0 renal, 29.6 µM; in the experiment on SF-268 CNS it was 36 µM; with HS 578T breast, 55.6 µM; with KM12 colon, 31.7 µM; in the experiment with UO-31 renal, 30.3 µM. The TGI was 27.7 µM with MCF7 breast and 26.8 µM in the experiment on T-47D breast.
On to `Cc1cccc(N(C(=O)Nc2ccc(Cl)c(Cl)c2)C2=NCC(C)S2)c1` (stereo not given), for which the TGI in the experiment with UACC-257 melanoma was > 100 µM; with OVCAR-8 ovarian, > 100 µM; in the experiment with CCRF-CEM leukemia, > 100 µM; in the experiment with MALME-3M melanoma, > 100 µM; with SK-MEL-5 melanoma, 45.8 µM; in the experiment on M14 melanoma, > 100 µM. The TGI was > 100 µM in the experiment with 786-0 renal; > 100 µM in the experiment with SF-268 CNS; > 100 µM in the experiment with HS 578T breast; > 100 µM in the experiment on KM12 colon; > 100 µM in the experiment with UO-31 renal; 58.8 µM in the experiment on MCF7 breast. Further, in the experiment on T-47D breast, the TGI is > 100 µM.
Regarding `COc1cc(OC)nc(-n2c(N)c(C#N)c3ccc([N+](=O)[O-])cc3c2=O)n1`, the TGI in the experiment with UACC-257 melanoma, in the experiment on OVCAR-8 ovarian, with CCRF-CEM leukemia, in the experiment on MDA-MB-435, in the experiment on SK-MEL-5 melanoma and in the experiment with M14 melanoma was > 100 µM in each case. In addition, the TGI in the experiment on 786-0 renal, in the experiment on SF-268 CNS, with HS 578T breast, in the experiment with KM12 colon, in the experiment with UO-31 renal and in the experiment on MCF7 breast was > 100 µM each time. Further, the TGI in the experiment with T-47D breast is > 100 µM.
In the case of `Cc1ccc(N(C(=O)Nc2ccccc2)C2=NCC(C)S2)cc1C` (stereo not given), the TGI in the experiment with UACC-257 melanoma is > 10 µM; with OVCAR-8 ovarian it was 91.2 µM; with CCRF-CEM leukemia it was 50.6 µM; in the experiment with MALME-3M melanoma, 40.7 µM; in the experiment on SK-MEL-5 melanoma it was 30.7 µM; in the experiment with M14 melanoma, 28.4 µM. In addition, the TGI in the experiment on 786-0 renal worked out at 46.6 µM; with SF-268 CNS, 69.8 µM; in the experiment on HS 578T breast, 77.4 µM; in the experiment with KM12 colon, 40.5 µM; in the experiment with UO-31 renal, 80.7 µM; in the experiment on MCF7 breast it was 71.9 µM. Further, the TGI in the experiment on T-47D breast was > 100 µM.
On to `Cc1ccc(NC2=CC(=O)C(NO)c3ccccc32)cc1` (stereo not given), for which the TGI in the experiment with UACC-257 melanoma came out at 3.84 µM; in the experiment on OVCAR-8 ovarian, 4.41 µM; in the experiment with RXF 393 renal it was 12.7 µM; in the experiment on SK-MEL-5 melanoma, 2.92 µM; in the experiment on M14 melanoma, 11.4 µM; in the experiment on 786-0 renal it was 17.4 µM. In addition, the TGI was 17.7 µM with SF-268 CNS; 20.2 µM with KM12 colon; 12.2 µM with UO-31 renal; 10.8 µM in the experiment with MCF7 breast; 7.63 µM in the experiment on T-47D breast.
As for `S=C1N(/N=C/c2c3ccccc3cc3ccccc23)C(=Nc2ccccc2)C(=Nc2ccccc2)N1c1ccccc1`, the TGI in the experiment on UACC-257 melanoma, with OVCAR-8 ovarian, with MALME-3M melanoma, in the experiment with MDA-MB-435, in the experiment on RXF 393 renal and in the experiment on SK-MEL-5 melanoma was > 100 µM throughout. In addition, the TGI in the experiment with M14 melanoma, in the experiment with 786-0 renal, in the experiment with SF-268 CNS, in the experiment on HS 578T breast, with KM12 colon and in the experiment with UO-31 renal was > 100 µM each time. In addition, the TGI with MCF7 breast and in the experiment on T-47D breast was > 100 µM in each case.
In the case of `CC(=O)Oc1ccc(-c2cc3ccccc3oc2=O)cc1`, the TGI in the experiment with UACC-257 melanoma, in the experiment on OVCAR-8 ovarian, with CCRF-CEM leukemia, in the experiment with MALME-3M melanoma, in the experiment on MDA-MB-435 and in the experiment with M14 melanoma was > 100 µM throughout. Also, the TGI in the experiment with 786-0 renal was > 100 µM; with SF-268 CNS, > 100 µM; in the experiment with HS 578T breast, > 100 µM; with KM12 colon, 39.9 µM; with UO-31 renal, > 100 µM; in the experiment on MCF7 breast, > 100 µM. In addition, the TGI in the experiment with T-47D breast is > 100 µM.
`Cn1c(O)c(C=Nc2ccccc2[N+](=O)[O-])c(=O)n(C)c1=O`: the TGI in the experiment with UACC-257 melanoma, in the experiment on OVCAR-8 ovarian, in the experiment on CCRF-CEM leukemia, in the experiment with MALME-3M melanoma, with MDA-MB-435 and with RXF 393 renal was > 100 µM in each case. For the same molecule, the TGI in the experiment with SK-MEL-5 melanoma, in the experiment on M14 melanoma, in the experiment on 786-0 renal, in the experiment with SF-268 CNS, with HS 578T breast and with KM12 colon was > 100 µM throughout. Besides, the TGI with UO-31 renal and in the experiment on T-47D breast was > 100 µM each time.
As to `COc1ccc(CC(=O)N2CCC3(C)CC(=O)CC=C23)cc1OC` (stereo not given), the TGI in the experiment on OVCAR-8 ovarian, in the experiment with MALME-3M melanoma, in the experiment on MDA-MB-435, with RXF 393 renal, in the experiment with SK-MEL-5 melanoma and with M14 melanoma was > 100 µM in each case. Moreover, the TGI in the experiment on 786-0 renal, in the experiment on SF-268 CNS, in the experiment on HS 578T breast, in the experiment on KM12 colon, in the experiment on UO-31 renal and in the experiment with MCF7 breast was > 100 µM in each case. In addition, the TGI with T-47D breast was > 100 µM.
Turning to `CC1=NN(c2cccc(Cl)c2)C2(SCC(=O)N2c2nc3ccccc3s2)/C1=C\c1cccs1` (stereo not given), the TGI was 64 µM with UACC-257 melanoma; 51.8 µM in the experiment with OVCAR-8 ovarian; > 100 µM in the experiment on MDA-MB-435; 51.6 µM with RXF 393 renal; 36.7 µM in the experiment on SK-MEL-5 melanoma; 89.3 µM in the experiment on M14 melanoma. For the same molecule, the TGI in the experiment on 786-0 renal is 41.1 µM; in the experiment with SF-268 CNS it was 44 µM; in the experiment with HS 578T breast it was 59 µM; with KM12 colon, 94.6 µM; in the experiment with UO-31 renal, 60.2 µM; in the experiment on MCF7 breast, > 100 µM. Besides, in the experiment on T-47D breast, the TGI is > 100 µM.
